According to patent publication US10780074B2, “Compounds and uses thereof” (Sunovion Pharmaceuticals Inc., priority 2017, dated 2020):
Counter-ions that a name gives are not always drawn.

Each compound was assayed on behaviors of compound-treated mice (assay: Neuropharmacological Assay (SmartCube)). Conditions: Mus musculus, ip, 0.25 h, dose having 50% or more total activity in SmartCube, i.p., read-out: MED (minimal effective dose).
Assay type: in vivo
Outline: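 Mice dosed i.p. 15 min before testing, with compound in N-methyl-2-pyrrolidone/PEG/propylene glycol, were video-recorded and algorithmically compared with reference-drug behavioral signatures. This gave class-match probabilities (antidepressant, anxiolytic, etc.) at the most efficacious of 3 doses. MED was defined as the dose with ≥50% total activity, usually tested across 0.3–30 mpk.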

Row | SMILES | minimal effective dose [mg/kg]
1 | NC[C@H]1OCCc2c(-c3cocn3)cccc21 [Compound 101, (S)-(5-(oxazol-4-yl)isochroman-1-yl)methanamine HCl salt] | 3 to 10
2 | CNC[C@@H]1OCCc2c(-c3cocn3)cccc21 [Compound 102, (R)—N-methyl-1-(5-(oxazol-4-yl)isochroman-1-yl)methanamine HCl salt] | 10 to 30
3 | CNC[C@H]1OCCc2c(-c3cocn3)cccc21 [Compound 103, (S)—N-methyl-1-(5-(oxazol-4-yl)isochroman-1-yl)methanamine HCl salt] | ≤ 3
4 | CNC[C@@H]1OCCc2c(-c3ncco3)cccc21 [Compound 104, (R)—N-Methyl-1-(5-(oxazol-2-yl)isochroman-1-yl)methanamine hydrochloride salt] | > 30
5 | CNC[C@H]1OCCc2c(-c3ncco3)cccc21 [Compound 105, (S)—N-methyl-1-(5-(oxazol-2-yl)isochroman-1-yl)methanamine dihydrochloride] | 3 to 10
6 | Cl.NC[C@@H]1OCCc2c(-c3ncco3)cccc21 [Compound 106, (R)-(5-(Oxazol-2-yl)isochroman-1-yl)methanamine hydrochloride salt] | 10 to 30
7 | NC[C@H]1OCCc2c(-c3ncco3)cccc21 [Compound 107, (S)-(5-(Oxazol-2-yl)isochroman-1-yl)methanamine hydrochloride salt] | 10 to 30
8 | NC[C@H]1OCCc2c(-c3ncc[nH]3)cccc21 [Compound 109, (S)-(5-(1H-Imidazol-2-yl)isochroman-1-yl)methanamine hydrochloride salt] | > 30
9 | CNC[C@@H]1OCCc2c(-c3ncc[nH]3)cccc21 [Compound 110, (R)-1-(5-(1H-Imidazol-2-yl)isochroman-1-yl)-N-methylmethanamine hydrochloride salt] | 10 to 30
10 | CNC[C@H]1OCCc2c(-c3ncc[nH]3)cccc21 [Compound 111, (S)-1-(5-(1H-Imidazol-2-yl)isochroman-1-yl)-N-methylmethanamine hydrochloride salt] | 10 to 30
11 | NC[C@@H]1OCCc2c(-c3cn[nH]c3)cccc21 [Compound 116, (R)-(5-(1H-pyrazol-4-yl)isochroman-1-yl)methanamine hydrochloride salt] | 3 to 10
12 | NC[C@H]1OCCc2c(-c3cn[nH]c3)cccc21 [Compound 117, (S)-(5-(1H-pyrazol-4-yl)isochroman-1-yl)methanamine hydrochloride salt] | 3 to 10
13 | CNC[C@@H]1OCCc2c(-c3cn[nH]c3)cccc21 [Compound 118, (R)-1-(5-(1H-pyrazol-4-yl)isochroman-1-yl)-N-methylmethanamine hydrochloride salt] | 10 to 30

Same assay, conditions: i.p. 15 min before behavioral test, most efficacious dose(s) of 3 doses

Row | SMILES | AD: ADHD (probability that activity matches class) | AG: analgesic (probability that activity matches class) | AX: anxiolytic (probability that activity matches class) | CE: cognitive enhancer (probability that activity matches class) | DP: anti-depressant (probability that activity matches class) | MS: mood stabilizer (probability that activity matches class) | PS: anti-psychotic (probability that activity matches class) | SD: sedative hypnotic (probability that activity matches class) | UN: uncharacterized CNS activity (probability that activity matches class)
14 | NC[C@H]1OCCc2c(-c3cocn3)cccc21 [Compound 101, (S)-(5-(oxazol-4-yl)isochroman-1-yl)methanamine HCl salt] | ++ (5% ≤ ++ <25%) | + (LOQ ≤ + <5%) | ++ (5% ≤ ++ <25%) | + (LOQ ≤ + <5%) | ++ (5% ≤ ++ <25%) | + (LOQ ≤ + <5%) | + (LOQ ≤ + <5%) | + (LOQ ≤ + <5%) | ++ (5% ≤ ++ <25%)
15 | CNC[C@@H]1OCCc2c(-c3cocn3)cccc21 [Compound 102, (R)—N-methyl-1-(5-(oxazol-4-yl)isochroman-1-yl)methanamine HCl salt] | + (LOQ ≤ + <5%) | + (LOQ ≤ + <5%) | ++ (5% ≤ ++ <25%) | + (LOQ ≤ + <5%) | + (LOQ ≤ + <5%) | + (LOQ ≤ + <5%) | + (LOQ ≤ + <5%) | + (LOQ ≤ + <5%) | + (LOQ ≤ + <5%)
16 | CNC[C@H]1OCCc2c(-c3cocn3)cccc21 [Compound 103, (S)—N-methyl-1-(5-(oxazol-4-yl)isochroman-1-yl)methanamine HCl salt] | ++ (5% ≤ ++ <25%) | + (LOQ ≤ + <5%) | ++ (5% ≤ ++ <25%) | + (LOQ ≤ + <5%) | ++++ (50% ≤ ++++) | + (LOQ ≤ + <5%) | + (LOQ ≤ + <5%) | + (LOQ ≤ + <5%) | + (LOQ ≤ + <5%)
17 | CNC[C@@H]1OCCc2c(-c3ncco3)cccc21 [Compound 104, (R)—N-Methyl-1-(5-(oxazol-2-yl)isochroman-1-yl)methanamine hydrochloride salt] | + (LOQ ≤ + <5%) | + (LOQ ≤ + <5%) | ++ (5% ≤ ++ <25%) | + (LOQ ≤ + <5%) | ++ (5% ≤ ++ <25%) | + (LOQ ≤ + <5%) | + (LOQ ≤ + <5%) | + (LOQ ≤ + <5%) | + (LOQ ≤ + <5%)
18 | CNC[C@H]1OCCc2c(-c3ncco3)cccc21 [Compound 105, (S)—N-methyl-1-(5-(oxazol-2-yl)isochroman-1-yl)methanamine dihydrochloride] | + (LOQ ≤ + <5%) | + (LOQ ≤ + <5%) | + (LOQ ≤ + <5%) | + (LOQ ≤ + <5%) | ++++ (50% ≤ ++++) | + (LOQ ≤ + <5%) | + (LOQ ≤ + <5%) | + (LOQ ≤ + <5%) | ++ (5% ≤ ++ <25%)
19 | Cl.NC[C@@H]1OCCc2c(-c3ncco3)cccc21 [Compound 106, (R)-(5-(Oxazol-2-yl)isochroman-1-yl)methanamine hydrochloride salt] | + (LOQ ≤ + <5%) | + (LOQ ≤ + <5%) | +++ (25% ≤ +++ <50%) | ++ (5% ≤ ++ <25%) | ++ (5% ≤ ++ <25%) | + (LOQ ≤ + <5%) | + (LOQ ≤ + <5%) | + (LOQ ≤ + <5%) | + (LOQ ≤ + <5%)
20 | NC[C@H]1OCCc2c(-c3ncco3)cccc21 [Compound 107, (S)-(5-(Oxazol-2-yl)isochroman-1-yl)methanamine hydrochloride salt] | + (LOQ ≤ + <5%) | + (LOQ ≤ + <5%) | + (LOQ ≤ + <5%) | + (LOQ ≤ + <5%) | +++ (25% ≤ +++ <50%) | + (LOQ ≤ + <5%) | + (LOQ ≤ + <5%) | + (LOQ ≤ + <5%) | + (LOQ ≤ + <5%)
21 | NC[C@H]1OCCc2c(-c3ncc[nH]3)cccc21 [Compound 109, (S)-(5-(1H-Imidazol-2-yl)isochroman-1-yl)methanamine hydrochloride salt] | + (LOQ ≤ + <5%) | + (LOQ ≤ + <5%) | ++ (5% ≤ ++ <25%) | + (LOQ ≤ + <5%) | ++ (5% ≤ ++ <25%) | + (LOQ ≤ + <5%) | + (LOQ ≤ + <5%) | + (LOQ ≤ + <5%) | + (LOQ ≤ + <5%)
22 | CNC[C@@H]1OCCc2c(-c3ncc[nH]3)cccc21 [Compound 110, (R)-1-(5-(1H-Imidazol-2-yl)isochroman-1-yl)-N-methylmethanamine hydrochloride salt] | + (LOQ ≤ + <5%) | + (LOQ ≤ + <5%) | ++ (5% ≤ ++ <25%) | + (LOQ ≤ + <5%) | + (LOQ ≤ + <5%) | + (LOQ ≤ + <5%) | + (LOQ ≤ + <5%) | + (LOQ ≤ + <5%) | + (LOQ ≤ + <5%)
23 | CNC[C@H]1OCCc2c(-c3ncc[nH]3)cccc21 [Compound 111, (S)-1-(5-(1H-Imidazol-2-yl)isochroman-1-yl)-N-methylmethanamine hydrochloride salt] | + (LOQ ≤ + <5%) | + (LOQ ≤ + <5%) | ++ (5% ≤ ++ <25%) | + (LOQ ≤ + <5%) | + (LOQ ≤ + <5%) | + (LOQ ≤ + <5%) | + (LOQ ≤ + <5%) | + (LOQ ≤ + <5%) | + (LOQ ≤ + <5%)
24 | NC[C@@H]1OCCc2c(-c3cn[nH]c3)cccc21 [Compound 116, (R)-(5-(1H-pyrazol-4-yl)isochroman-1-yl)methanamine hydrochloride salt] | + (LOQ ≤ + <5%) | + (LOQ ≤ + <5%) | ++ (5% ≤ ++ <25%) | + (LOQ ≤ + <5%) | ++++ (50% ≤ ++++) | + (LOQ ≤ + <5%) | ++ (5% ≤ ++ <25%) | + (LOQ ≤ + <5%) | ++ (5% ≤ ++ <25%)
25 | NC[C@H]1OCCc2c(-c3cn[nH]c3)cccc21 [Compound 117, (S)-(5-(1H-pyrazol-4-yl)isochroman-1-yl)methanamine hydrochloride salt] | + (LOQ ≤ + <5%) | + (LOQ ≤ + <5%) | ++ (5% ≤ ++ <25%) | + (LOQ ≤ + <5%) | ++ (5% ≤ ++ <25%) | + (LOQ ≤ + <5%) | ++ (5% ≤ ++ <25%) | ++ (5% ≤ ++ <25%) | ++ (5% ≤ ++ <25%)
26 | CNC[C@@H]1OCCc2c(-c3cn[nH]c3)cccc21 [Compound 118, (R)-1-(5-(1H-pyrazol-4-yl)isochroman-1-yl)-N-methylmethanamine hydrochloride salt] | + (LOQ ≤ + <5%) | ++ (5% ≤ ++ <25%) | ++ (5% ≤ ++ <25%) | + (LOQ ≤ + <5%) | ++ (5% ≤ ++ <25%) | + (LOQ ≤ + <5%) | + (LOQ ≤ + <5%) | +++ (25% ≤ +++ <50%) | ++ (5% ≤ ++ <25%)
